Key:
COX-1 = COX-1 (Homo sapiens, UniProt P23219); assay: Stressgen StressXpress cyclooxygenase activity kit, COX-1; type: biochemical; settings: for COX-1 activity (RLU): vehicle 4115 RLU
Description: (§1) The Stressgen StressXpress™ cyclooxygenases activity Kit provides a method to measure specifically cyclooxygenases COX-1 and COX-2 in a variety of biological fluids. The kit uses a specific chemiluminescent substrate (aromatic hydrocarbon molecule) to detect the peroxidative activity of COX enzymes. […] Light emission begins immediately and chemiluminescent signal (Relative Luminescence Units—RLU—is measured after 30 minutes (luminometer Tecan). The amount of light emitted is directly proportional to the COX activity.

[1] = tested on: COX-2 expression in HT29 cells; assay: Western blot of COX-2 expression in HT 29 cells; type: cell-based, human; settings: FIG. 1
Description: Western blot analysis: cells lysate were prepared by treating HT 29 cells (treated as above for PGE-2 determinations, i.e. in presence or absence of TNF-alpha and with or without α-CH2-γ-butyrolactone) with lysis buffer (150 mM NaCl, 10 mM Tris HCl pH 8, 1% Tween 20, EDTA pH 8 1 mM, proteases inhibitors, PEFA, (Merck), DETC (Aldrich)). Lysates were sonicated for 5 s, and centrifugated at 10000 g for 5 min. Proteins concentration were estimated by the Bradford method which was standardized using bovine serum albumine.
Whole cell extracts (25 μg) were boiled in Laemmli sample buffer and resolved by SDS-PAGE on 10% gel using the discontinuous polyacrylamide gel system. Non specific binding sites were blocked by incubating the membrane in 5% dried milk phosphate buffered saline solution containing 0.1% of tween-20 overnight at 4° C. Blots were hybridized in a 1:1000 dilution of a goat polyclonal anti COX-2 and also COX-1 antibody (C-20, Santa Cruz Biotechnology) in 5% milk PBS for 1 h at room temperature followed by 1 h of washing in 1% milk PBS. Subsequently, blots were probed with a secondary donkey anti-goat antibody horseradish peroxidase conjugated. After washing for 1 h, the complex was detected using ECL Western blotting reagents (Amersham)

COX-2 = biological target: T1, COX-2 (Homo sapiens, UniProt P35354); assay: Stressgen StressXpress cyclooxygenase activity kit, COX-2; type: biochemical
T1 sequence (P35354 18-604): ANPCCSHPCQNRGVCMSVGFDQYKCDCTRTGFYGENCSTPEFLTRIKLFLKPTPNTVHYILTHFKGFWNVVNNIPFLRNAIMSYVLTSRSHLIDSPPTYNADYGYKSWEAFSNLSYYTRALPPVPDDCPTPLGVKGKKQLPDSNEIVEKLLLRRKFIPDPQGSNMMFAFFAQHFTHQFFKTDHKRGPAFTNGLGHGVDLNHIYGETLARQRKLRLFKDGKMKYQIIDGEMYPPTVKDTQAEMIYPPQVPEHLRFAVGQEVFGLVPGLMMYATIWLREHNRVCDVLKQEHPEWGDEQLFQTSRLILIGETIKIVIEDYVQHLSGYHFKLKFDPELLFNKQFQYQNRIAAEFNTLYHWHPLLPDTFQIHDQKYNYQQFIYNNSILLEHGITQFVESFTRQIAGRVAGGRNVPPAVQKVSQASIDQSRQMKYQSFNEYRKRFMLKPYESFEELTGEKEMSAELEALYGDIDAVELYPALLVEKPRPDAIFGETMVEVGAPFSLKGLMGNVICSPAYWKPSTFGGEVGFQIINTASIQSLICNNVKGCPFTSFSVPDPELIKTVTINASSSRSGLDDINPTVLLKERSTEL
Description: as §1

HT 29 cells = assay: PGE2 synthesis in HT29 cells treated with α-CH2-γ-butyrolactone with and without TNF-α; type: cell-based, human; settings: for pg PGE2/ml of medium + TNF-α / PGE2 % of control − TNF-α / pg PGE2/ml of medium − TNF-α: 21 h; for pg PGE2/ml of medium + TNF-α / PGE2 % of control + TNF-α: TNF-α 10 ng/ml for 6 h; for PGE2 % of control − TNF-α / pg PGE2/ml of medium − TNF-α: without TNF-α; for PGE2 % of control + TNF-α: relative to methanol control without TNF-α (control + TNF-α = 730)
Description: To this end, cells were cultured and passed in Mc Coy's 5A medium supplemented with arachidonic acid ([…]) and bovine serum albumin (0.01%). Cells were treated by alpha-methylen-gamma-butyrolactone (dissolved in methanol) at the following doses: 15, 30, 60 microM or by solvent alone during 21 h including or not stimulation with TNF-alpha (10 ng/ml) for 6 h. PGE2 analysis was performed using an Elisa test on a medium sample.

Chain of COX-1 (P23219 24-599): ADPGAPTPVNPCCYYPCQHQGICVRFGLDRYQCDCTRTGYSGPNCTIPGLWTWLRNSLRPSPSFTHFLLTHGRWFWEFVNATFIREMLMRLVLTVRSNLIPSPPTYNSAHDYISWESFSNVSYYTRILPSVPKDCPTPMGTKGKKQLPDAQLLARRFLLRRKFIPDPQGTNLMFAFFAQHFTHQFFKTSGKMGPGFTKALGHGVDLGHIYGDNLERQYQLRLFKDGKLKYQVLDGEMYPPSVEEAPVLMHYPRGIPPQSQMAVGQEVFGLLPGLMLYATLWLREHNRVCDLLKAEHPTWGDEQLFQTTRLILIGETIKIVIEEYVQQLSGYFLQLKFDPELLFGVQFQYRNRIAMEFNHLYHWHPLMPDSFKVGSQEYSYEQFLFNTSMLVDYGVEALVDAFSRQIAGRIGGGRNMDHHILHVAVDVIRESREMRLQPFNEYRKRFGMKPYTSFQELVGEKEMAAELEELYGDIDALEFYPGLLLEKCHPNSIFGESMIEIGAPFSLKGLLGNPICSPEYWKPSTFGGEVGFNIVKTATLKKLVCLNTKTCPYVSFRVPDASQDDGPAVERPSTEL

CS(=O)(=O)Nc1ccc([N+](=O)[O-])cc1OC1CCCCC1 [NS-398, reference compound]
COX-1 activity % of control (COX-1; 1 mM): 99 % of control | COX-1 activity (RLU) (COX-1; 1 mM): 4063 RLU

C=C1CCOC1=O [α-CH2-γ-butyrolactone, α-methylene-γ-butyrolactone]
COX-2 expression (Western blot, in words) [1]: inhibition of COX-2 expression | COX-1 activity % of control (COX-1; 40 μM): 117 % of control | COX-1 activity (RLU) (COX-1; 40 μM): 4807 RLU | COX-2 activity % of control (COX-2; 40 μM): 49 % of control | COX-2 activity (RLU) (COX-2; 40 μM, vehicle 26450 RLU): 12823 RLU | inhibition of COX-2 activity (in words) (COX-2; cyclooxygenase activity kit): inhibit specifically and with high potency COX-2 activity | pg PGE2/ml of medium + TNF-α (HT 29 cells; 15 μM): 13286 pg/mL | PGE2 % of control − TNF-α (HT 29 cells; 15 μM): 108 % of control | pg PGE2/ml of medium − TNF-α (HT 29 cells; 15 μM): 2814 pg/mL | PGE2 % of control + TNF-α (HT 29 cells; 15 μM): 512 % of control | pg PGE2/ml of medium + TNF-α (HT 29 cells; 30 μM): 9349 pg/mL | PGE2 % of control − TNF-α (HT 29 cells; 30 μM): 76 % of control | pg PGE2/ml of medium − TNF-α (HT 29 cells; 30 μM): 1970 pg/mL | PGE2 % of control + TNF-α (HT 29 cells; 30 μM): 360 % of control | pg PGE2/ml of medium + TNF-α (HT 29 cells; 60 μM): 1310 pg/mL | PGE2 % of control − TNF-α (HT 29 cells; 60 μM): 14 % of control | pg PGE2/ml of medium − TNF-α (HT 29 cells; 60 μM): 1144 pg/mL | PGE2 % of control + TNF-α (HT 29 cells; 60 μM): 50 % of control

From patent publication US20040208944A1, “Compositions and methods against inflammatory processes” (priority 2002, published 2004)
